Results: article PMC8351955, “Targeting Mycobacterium tuberculosis response to environmental cues for the development of effective antitubercular drugs” (PLoS Biology, 2021)
“And” between values parts separate entries of the source, which are not always exact repeats. Equal entries are not always repeated.

Legend:
[1] = system: CDC1551(rv1405c′::GFP) reporter Mtb strain; test: microbe, parasite or virus in culture; type: cell-based, Mycobacterium tuberculosis; conditions: for NPA - rv1405c'::GFP, average: Fig 1D
Mouse plasma stability = type: in vitro ADME; conditions: 5-h incubation
[2] = system: WT Mtb (Erdman) in primary murine BMDMs; test: Primary murine bone marrow-derived macrophage infection, CFU; type: cell-based, Mycobacterium tuberculosis; conditions: for CFU/ml in BMDMs, average: Fig 1I; for CFU/ml: Fig. 2E, 10 µM
Protocol: C57BL/6J wild-type mice (Jackson Laboratories) were used for extraction of BMDMs. Cells were harvested and expanded in DMEM containing 10% FBS, 15% L-cell conditioned media, 2 mM L-glutamine, 1 mM sodium pyruvate, and penicillin/streptomycin as needed in a 37°C incubator in a 5% CO2 atmosphere. […] Macrophages were lysed with water containing 0.01% sodium dodecyl sulfate and a dilution series of the samples plated on 7H10 agar for CFU determination.

[3] = system: macrophage phagosomal acidification in BMDMs; test: Phagosomal maturation assay, carboxyfluorescein beads (pH readout); type: cell-based, mouse; conditions: for 490 nm/450 nm, Average: average of 5 replicates
Protocol: Carboxyfluorescein (pH readout), DQ-BSA/Alexa Fluor 594 (AF594) (proteolysis readout), and BAC/AF594 (Cl^− readout) beads were generated essentially as previously described, except that 10,10′-Bis[3-carboxylpropyl]-9,9′-biacridinium dinitrate di-NHS ester (BAC-SE) was purchased from emp Biotech LLC. BMDMs were isolated from C57BL/6J mice (The Jackson Laboratory) and maintained as described above. A quantity of 2 × 10^5 macrophages/well were seeded into 96-well clear bottom black plates and utilized in assays 1 to 2 days post-seeding. […] Assay buffer consisted of PBS (pH 7.2), supplemented with 5% FBS, 5 mM dextrose, 1 mM CaCl2, 2.7 mM KCl, and 0.5 mM MgCl2 in the case of assays with the carboxyfluorescein or DQ-BSA/AF594 beads. For assays with the BAC/AF594 beads, assay buffer consisted of PBS (pH 7.2), supplemented with 5% FBS, 5 mM dextrose, 1 mM calcium acetate, 1.35 mM K2SO4, and 0.5 mM MgSO4 [9]. Sensor beads at approximately 2 to 5 beads/macrophage in appropriate assay buffer were finally added, with data acquisition on a Biotek Synergy H1 microplate reader with bottom read signal detection started within 2 to 3 minutes of bead addition. Excitation/emission wavelengths were 450 nm/520 nm and 490 nm/520 nm for carboxyfluorescein, 490 nm/520 nm for DQ-BSA, 365 nm/505 nm for BAC, and 590 nm/617 nm for AF594. Each experiment was run with a total of 3 to 5 replicate wells/condition, with temperature maintained at 37°C throughout the assay. Wells were read every 2 minutes for 2 hours for the carboxyfluorescein bead assays, every 2 minoutes for 4 hours for the DQ-BSA/AF594 bead assays, and every 1 minute for 2 hours for the BAC/AF594 bead assays. Analyses of the results were performed as previously described.

CCSc1ncc(CN2CCN(c3nc4ccccc4o3)CC2)cn1 [C6, 2-(4-((2-(ethylthio)pyrimidin-5-yl)methyl)piperazin-1-yl)benzo[d]oxazole]
NPA - rv1405c'::GFP, average ([1]; 0.0390625 µM): 91.7667%
NPA - rv1405c'::GFP, average ([1]; 0.078125 µM): 104.333%
NPA - rv1405c'::GFP, average ([1]; 0.15625 µM): 97.8333%
NPA - rv1405c'::GFP, average ([1]; 0.3125 µM): 95.1667%
NPA - rv1405c'::GFP, average ([1]; 0.625 µM): 93.7333%
NPA - rv1405c'::GFP, average ([1]; 1.25 µM): 103.333%
NPA - rv1405c'::GFP, average ([1]; 2.5 µM): 124.667%
NPA - rv1405c'::GFP, average ([1]; 5 µM): 141%
NPA - rv1405c'::GFP, average ([1]; 10 µM): 137.333%
NPA - rv1405c'::GFP, average ([1]; 20 µM): 161.5%
activity at 10 µM ([1]; Mycobacterium tuberculosis, read-out: rv1405c'::GFP secondary assay NPA% at 10 µM compound): 137 ± 15%
activity at 20 µM ([1]; Mycobacterium tuberculosis, read-out: rv1405c'::GFP secondary assay NPA% at 20 µM compound): 162 ± 3.5%
remaining at 5 h (Mouse plasma stability): > 99.9%
Effect on bacterial load / Mtb growth in primary murine BMDMs ([2]; 10 μM, 8-day infection time course, vs DMSO): significant decrease in bacterial load
CFU/ml in BMDMs, average ([2]; 10 μM, day 2): 153500 CFU/ml
CFU/ml in BMDMs, average ([2]; 10 μM, day 4): 188500 CFU/ml
CFU/ml in BMDMs, average ([2]; 10 μM, day 6): 283000 CFU/ml
CFU/ml in BMDMs, average ([2]; 10 μM, day 8): 322500 CFU/ml
CFU/ml ([2]; day 2, average): 426000 CFU/ml
CFU/ml ([2]; day 2, individual replicates): 406000 CFU/ml and 418000 CFU/ml and 454000 CFU/ml
CFU/ml ([2]; day 4, average): 573333 CFU/ml
CFU/ml ([2]; day 4, individual replicates): 580000 CFU/ml and 640000 CFU/ml and 500000 CFU/ml
CFU/ml ([2]; day 6, average): 746667 CFU/ml
CFU/ml ([2]; day 6, individual replicates): 700000 CFU/ml and 660000 CFU/ml and 880000 CFU/ml
CFU/ml ([2]; day 8, average): 1020000 CFU/ml
CFU/ml ([2]; day 8, individual replicates): 880000 CFU/ml and 1100000 CFU/ml and 1080000 CFU/ml
Effect on macrophage phagosomal acidification ([3]; 10 μM, uninfected BMDMs): did not alter
490 nm/450 nm, Average ([3]; time 0 minutes): 4.858
490 nm/450 nm, Average ([3]; time 2 minutes): 4.93
490 nm/450 nm, Average ([3]; time 4 minutes): 4.883
490 nm/450 nm, single replicates (Rep 1-5) ([3]; time 6 minutes): 4.9284 and 4.8623 and 4.895 and 4.851 and 4.867
490 nm/450 nm, Average ([3]; time 6 minutes): 4.881
490 nm/450 nm, single replicates (Rep 1-5) ([3]; time 8 minutes): 4.803 and 4.864 and 4.815 and 4.7957 and 4.8066
490 nm/450 nm, Average ([3]; time 8 minutes): 4.817
490 nm/450 nm, single replicates (Rep 1-5) ([3]; time 10 minutes): 4.783 and 4.786 and 4.81 and 4.727 and 4.764
490 nm/450 nm, Average ([3]; time 10 minutes): 4.774
490 nm/450 nm, single replicates (Rep 1-5) ([3]; time 12 minutes): 4.5604 and 4.6849 and 4.647 and 4.525 and 4.478
490 nm/450 nm, Average ([3]; time 12 minutes): 4.579
490 nm/450 nm, single replicates (Rep 1-5) ([3]; time 14 minutes): 4.45 and 4.492 and 4.497 and 4.303 and 4.234
490 nm/450 nm, Average ([3]; time 14 minutes): 4.395
490 nm/450 nm, single replicates (Rep 1-5) ([3]; time 16 minutes): 4.182 and 4.214 and 4.296 and 4.029 and 3.894
490 nm/450 nm, Average ([3]; time 16 minutes): 4.123
490 nm/450 nm, single replicates (Rep 1-5) ([3]; time 18 minutes): 3.914 and 3.991 and 4.055 and 3.796 and 3.692
490 nm/450 nm, Average ([3]; time 18 minutes): 3.89
490 nm/450 nm, single replicates (Rep 1-5) ([3]; time 20 minutes): 3.661 and 3.707 and 3.803 and 3.557 and 3.477
490 nm/450 nm, Average ([3]; time 20 minutes): 3.641
490 nm/450 nm, single replicates (Rep 1-5) ([3]; time 22 minutes): 3.443 and 3.455 and 3.57 and 3.319 and 3.292
490 nm/450 nm, Average ([3]; time 22 minutes): 3.416
490 nm/450 nm, single replicates (Rep 1-5) ([3]; time 24 minutes): 3.1867 and 3.242 and 3.389 and 3.087 and 3.065
490 nm/450 nm, Average ([3]; time 24 minutes): 3.194
490 nm/450 nm, single replicates (Rep 1-5) ([3]; time 26 minutes): 3.004 and 3.052 and 3.169 and 2.941 and 2.895
490 nm/450 nm, Average ([3]; time 26 minutes): 3.012
490 nm/450 nm, single replicates (Rep 1-5) ([3]; time 28 minutes): 2.852 and 2.904 and 3.023 and 2.803 and 2.7626
490 nm/450 nm, Average ([3]; time 28 minutes): 2.869
490 nm/450 nm, single replicates (Rep 1-5) ([3]; time 30 minutes): 2.719 and 2.762 and 2.859 and 2.651 and 2.679
490 nm/450 nm, Average ([3]; time 30 minutes): 2.734
490 nm/450 nm, single replicates (Rep 1-5) ([3]; time 32 minutes): 2.588 and 2.623 and 2.733 and 2.5744 and 2.581
490 nm/450 nm, Average ([3]; time 32 minutes): 2.62
490 nm/450 nm, single replicates (Rep 1-5) ([3]; time 34 minutes): 2.506 (2×) and 2.556 and 2.644 and 2.5507
490 nm/450 nm, Average ([3]; time 34 minutes): 2.552
490 nm/450 nm, single replicates (Rep 1-5) ([3]; time 36 minutes): 2.483 and 2.493 and 2.575 and 2.447 and 2.499
490 nm/450 nm, Average ([3]; time 36 minutes): 2.499
490 nm/450 nm, single replicates (Rep 1-5) ([3]; time 38 minutes): 2.411 and 2.458 and 2.4978 and 2.4066 and 2.452
490 nm/450 nm, Average ([3]; time 38 minutes): 2.445
490 nm/450 nm, single replicates (Rep 1-5) ([3]; time 40 minutes): 2.369 and 2.38 and 2.4986 and 2.406 and 2.442
490 nm/450 nm, Average ([3]; time 40 minutes): 2.419
490 nm/450 nm, single replicates (Rep 1-5) ([3]; time 42 minutes): 2.364 and 2.3783 and 2.434 and 2.346 and 2.427
490 nm/450 nm, Average ([3]; time 42 minutes): 2.3898
490 nm/450 nm, single replicates (Rep 1-5) ([3]; time 44 minutes): 2.319 and 2.337 and 2.405 and 2.355 and 2.4128
490 nm/450 nm, Average ([3]; time 44 minutes): 2.3655
490 nm/450 nm, Average ([3]; time 46 minutes): 2.351
490 nm/450 nm, Average ([3]; time 48 minutes): 2.35
490 nm/450 nm, Average ([3]; time 50 minutes): 2.351
490 nm/450 nm, Average ([3]; time 52 minutes): 2.342
490 nm/450 nm, Average ([3]; time 54 minutes): 2.342
490 nm/450 nm, Average ([3]; time 56 minutes): 2.334
490 nm/450 nm, Average ([3]; time 58 minutes): 2.337
490 nm/450 nm, Average ([3]; time 60 minutes): 2.3392
490 nm/450 nm, Average ([3]; time 62 minutes): 2.354
490 nm/450 nm, Average ([3]; time 64 minutes): 2.349
490 nm/450 nm, Average ([3]; time 66 minutes): 2.351
490 nm/450 nm, Average ([3]; time 68 minutes): 2.358
490 nm/450 nm, Average ([3]; time 70 minutes): 2.362
490 nm/450 nm, Average ([3]; time 72 minutes): 2.363
490 nm/450 nm, Average ([3]; time 74 minutes): 2.3781
490 nm/450 nm, Average ([3]; time 76 minutes): 2.3813
490 nm/450 nm, Average ([3]; time 78 minutes): 2.38
490 nm/450 nm, Average ([3]; time 80 minutes): 2.392
490 nm/450 nm, Average ([3]; time 82 minutes): 2.387
490 nm/450 nm, Average ([3]; time 84 minutes): 2.389
490 nm/450 nm, Average ([3]; time 86 minutes): 2.399
490 nm/450 nm, Average ([3]; time 88 minutes): 2.414
490 nm/450 nm, Average ([3]; time 90 minutes): 2.411
490 nm/450 nm, Average ([3]; time 92 minutes): 2.4274
490 nm/450 nm, Average ([3]; time 94 minutes): 2.4259
490 nm/450 nm, Average ([3]; time 96 minutes): 2.426
490 nm/450 nm, Average ([3]; time 98 minutes): 2.438
490 nm/450 nm, Average ([3]; time 100 minutes): 2.447
490 nm/450 nm, Average ([3]; time 102 minutes): 2.452
490 nm/450 nm, Average ([3]; time 104 minutes): 2.453
490 nm/450 nm, Average ([3]; time 106 minutes): 2.461
490 nm/450 nm, Average ([3]; time 108 minutes): 2.469
490 nm/450 nm, Average ([3]; time 110 minutes): 2.47
490 nm/450 nm, Average ([3]; time 112 minutes): 2.479
490 nm/450 nm, Average ([3]; time 114 minutes): 2.475
490 nm/450 nm, Average ([3]; time 116 minutes): 2.485
490 nm/450 nm, Average ([3]; time 118 minutes): 2.494
490 nm/450 nm, Average ([3]; time 120 minutes): 2.492
